Reference: PMC12855270, “Exceptionally selective voltage-sensor trapping of NaV1.5 channels by Mg-protoporphyrin impairs cancer cell migration” (Scientific Reports, 2026)
Like-named read-outs stand apart in the source and are kept apart here.

What was measured:
human NaV1.5 (hNaV1.5) [1] = biological target: T1, human NaV1.5 (hNaV1.5) (Homo sapiens, UniProt Q14524); conditions: for effect on hNaV1.5 current / remaining peak inward current: 1 µM extracellular, 5 min, -30 mV; for IC50: read-out: IC50 of hNaV1.5 current inhibition (Hill fit, constrained), current after 5 min, Hill coefficient constrained to 1 and remaining current to zero
MDA-MB-231 cells = assay: wound-healing assay, MDA-MB-231; type: cell-based, human; conditions: for gap closure (cell migration) in wound-healing assay: 100 nM, 4 h, 2% FBS, MDA-MB-231
[2] = biological target: T2, human BKCa channel (KCa1.1, KCNMA1) (Homo sapiens, UniProt Q12791); assay: BKCa currents in inside-out patches (HEK293T); type: biochemical; conditions: 1 µM to intracellular side, 1 µM free Ca2+, 80 mV
T2 construct: expressed in transfected cells; host or cells: HEK293T
Description: The coding sequence of human NaV1.5 (hNaV1.5, SCN5A, Acc. no. M77235) was inserted into pRC/CMV vector plasmids and expressed in HEK293T cells as described previously. The following NaV constructs were used in a similar manner: mNaV1.5 (mouse, AJ271477.1), hNaV1.2 (NM001040143), hNaV1.4 (AAO83647), hNaV1.7 (NP002968), and hNaV1.8 (Q9Y5Y9.2). The neonatal splice variant of hNaV1.5 (nhNaV1.5) was used as described by Schroeter et al.[45]. Recombinant DNAs for all NaV subgroups were engineered using PCR-based methods and verified by DNA sequencing. For the functional evaluation of BKCa channels (KCa1.1), we used human KCNMA1 (Acc. no. U11058).
Cells were transfected with the channel-coding plasmids using ROTI®Fect (Carl Roth, Karlsruhe, Germany). Visualization of transfected cells was achieved by co-expressing green fluorescent protein or in the case of BKCa channels, CD8 + with subsequent use of anti-CD8 coated microbeads. Neuro-2A cells were utilized for the expression of hNaV1.8 channels; all other constructs were expressed in HEK293T cells. Ionic currents were recorded 1–2 days after transfection.
Currents of BKCa channels were measured in inside-out patches after expression in HEK293T cells, using an EPC10 amplifier (HEKA Elektronik) and PACHMASTER NEXT acquisition software (Multi-Channel Systems GmbH, MCS, Reutlingen, Germany). The holding voltage was -90 mV, and currents were recorded for depolarization steps up to 80 mV. Pipettes with resistances of 1.8–2.5 MΩ were used. The extracellular (pipette) solution contained (in mM): 138 NaCl, 4 KCl, 2 CaCl2, 2 MgCl2, and 10 HEPES, pH 7.4 (NaOH); the intracellular (bath) solution with about 1 µM free Ca^2+ contained: 135 KCl, 8.63 CaCl2, 2 MgCl2, 10 EGTA, and 10 HEPES, pH 7.4 (KOH).
All recordings were obtained at room temperature (20–23 °C). Metal protoporphyrins, diluted from stock solutions in DMSO, were applied by adding 1/3 of the final bath volume and mixing. Transmission and fluorescence light sources were turned off during data acquisition.

SW-48 cells = assay: wound-healing assay, SW-48; type: cell-based, human
Description: (§1) Human embryonic kidney 293 T cells (HEK293T, from CAMR; Porton Down, Salisbury, UK) were cultured in Dulbecco’s Modified Eagle’s Medium (DMEM) with Nutrient Mixture F-12 (Gibco). Mouse neuroblastoma cells (Neuro-2A, German Collection of Microorganisms and Cell Cultures, DSMZ, Braunschweig, Germany) were cultured in DMEM. The breast cancer cell lines MDA-MB-231 (DSMZ) and T-47D (American Type Culture Collection, ATCC) were cultured in RPMI 1640 medium (Sigma, R7388), while the colorectal cancer cell lines SW-480 (DSMZ) and SW-48 (ATCC) were maintained in DMEM. Media were supplemented with 10% FBS, and the cells were incubated at 37 °C in a humidified atmosphere containing 5% or 10% (Neuro-2A) CO2.
(§2) Cells (50,000 to 70,000 per well) were seeded in a 48-well plate (Greiner Bio-One, Frickenhausen, Germany) and cultured for one day in their respective culture media supplemented with 10% FBS. Upon achieving approximately 90% confluency, a 200 µl sterile pipette tip was used to create a linear scratch (wound) in each well. Subsequently, the cells were rinsed with phosphate-buffered saline (PBS) and the medium was replaced with the same formulation containing only 2% FBS to minimize cell proliferation and to emphasize cell migration. […] Images were analyzed with ImageJ (NIH, Bethesda, MD, USA) using the “wound_healing_size_tool_updated” plugin[46] to quantify wound areas.

SW-480 cells = assay: wound-healing assay, SW-480; type: cell-based, human
Description: as §1, §2

[3] = biological target: endogenous NaV-channel current in MDA-MB-231 cells (Homo sapiens, UniProt Q14524); assay: whole-cell patch-clamp of endogenous NaV-channel current in MDA-MB-231 cells; type: cell-based
human NaV1.5 (hNaV1.5) [4] = biological target: T1, human NaV1.5 (hNaV1.5); conditions: cited from earlier work
[5] = test system: xenografted NaV1.5-expressing human breast cancer cells; conditions: mouse xenograft model; cited from earlier work
[6] = biological target: T2, human BKCa channel (KCa1.1, KCNMA1); conditions: applied to the intracellular side; cited from earlier work

T2 sequence (Q12791 1-1178 isoform Q12791-5): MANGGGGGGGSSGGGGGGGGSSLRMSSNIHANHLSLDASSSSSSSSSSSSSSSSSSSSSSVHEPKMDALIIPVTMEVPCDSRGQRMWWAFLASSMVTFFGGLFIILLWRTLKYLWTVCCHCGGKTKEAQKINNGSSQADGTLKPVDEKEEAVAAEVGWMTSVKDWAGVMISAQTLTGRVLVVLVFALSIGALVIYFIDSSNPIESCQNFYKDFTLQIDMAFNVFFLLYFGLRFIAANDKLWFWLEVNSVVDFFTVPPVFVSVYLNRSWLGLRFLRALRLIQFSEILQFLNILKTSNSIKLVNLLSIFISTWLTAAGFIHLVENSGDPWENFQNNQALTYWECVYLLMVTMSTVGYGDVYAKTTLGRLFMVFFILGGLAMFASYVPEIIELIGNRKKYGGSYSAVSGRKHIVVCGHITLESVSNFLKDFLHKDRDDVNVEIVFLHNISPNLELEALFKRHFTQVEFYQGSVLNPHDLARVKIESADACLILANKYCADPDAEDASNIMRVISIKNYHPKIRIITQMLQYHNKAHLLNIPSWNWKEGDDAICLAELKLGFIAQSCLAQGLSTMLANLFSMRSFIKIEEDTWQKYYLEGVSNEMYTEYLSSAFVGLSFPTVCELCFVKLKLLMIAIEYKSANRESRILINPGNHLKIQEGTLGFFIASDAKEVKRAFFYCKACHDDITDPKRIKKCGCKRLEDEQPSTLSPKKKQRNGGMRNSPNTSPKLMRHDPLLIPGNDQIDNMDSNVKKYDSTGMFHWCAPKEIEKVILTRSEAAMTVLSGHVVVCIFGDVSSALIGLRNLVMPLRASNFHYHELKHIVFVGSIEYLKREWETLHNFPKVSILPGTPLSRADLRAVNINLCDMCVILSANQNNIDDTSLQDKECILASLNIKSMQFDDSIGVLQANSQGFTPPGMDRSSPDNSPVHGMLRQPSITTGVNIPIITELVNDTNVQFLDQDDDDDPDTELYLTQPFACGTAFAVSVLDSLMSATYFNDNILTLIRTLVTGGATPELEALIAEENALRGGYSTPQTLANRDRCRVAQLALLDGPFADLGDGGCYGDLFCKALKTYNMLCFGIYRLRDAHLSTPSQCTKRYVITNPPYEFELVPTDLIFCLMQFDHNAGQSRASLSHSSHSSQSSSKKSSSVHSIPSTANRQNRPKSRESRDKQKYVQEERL
T1 sequence (Q14524 whole entry): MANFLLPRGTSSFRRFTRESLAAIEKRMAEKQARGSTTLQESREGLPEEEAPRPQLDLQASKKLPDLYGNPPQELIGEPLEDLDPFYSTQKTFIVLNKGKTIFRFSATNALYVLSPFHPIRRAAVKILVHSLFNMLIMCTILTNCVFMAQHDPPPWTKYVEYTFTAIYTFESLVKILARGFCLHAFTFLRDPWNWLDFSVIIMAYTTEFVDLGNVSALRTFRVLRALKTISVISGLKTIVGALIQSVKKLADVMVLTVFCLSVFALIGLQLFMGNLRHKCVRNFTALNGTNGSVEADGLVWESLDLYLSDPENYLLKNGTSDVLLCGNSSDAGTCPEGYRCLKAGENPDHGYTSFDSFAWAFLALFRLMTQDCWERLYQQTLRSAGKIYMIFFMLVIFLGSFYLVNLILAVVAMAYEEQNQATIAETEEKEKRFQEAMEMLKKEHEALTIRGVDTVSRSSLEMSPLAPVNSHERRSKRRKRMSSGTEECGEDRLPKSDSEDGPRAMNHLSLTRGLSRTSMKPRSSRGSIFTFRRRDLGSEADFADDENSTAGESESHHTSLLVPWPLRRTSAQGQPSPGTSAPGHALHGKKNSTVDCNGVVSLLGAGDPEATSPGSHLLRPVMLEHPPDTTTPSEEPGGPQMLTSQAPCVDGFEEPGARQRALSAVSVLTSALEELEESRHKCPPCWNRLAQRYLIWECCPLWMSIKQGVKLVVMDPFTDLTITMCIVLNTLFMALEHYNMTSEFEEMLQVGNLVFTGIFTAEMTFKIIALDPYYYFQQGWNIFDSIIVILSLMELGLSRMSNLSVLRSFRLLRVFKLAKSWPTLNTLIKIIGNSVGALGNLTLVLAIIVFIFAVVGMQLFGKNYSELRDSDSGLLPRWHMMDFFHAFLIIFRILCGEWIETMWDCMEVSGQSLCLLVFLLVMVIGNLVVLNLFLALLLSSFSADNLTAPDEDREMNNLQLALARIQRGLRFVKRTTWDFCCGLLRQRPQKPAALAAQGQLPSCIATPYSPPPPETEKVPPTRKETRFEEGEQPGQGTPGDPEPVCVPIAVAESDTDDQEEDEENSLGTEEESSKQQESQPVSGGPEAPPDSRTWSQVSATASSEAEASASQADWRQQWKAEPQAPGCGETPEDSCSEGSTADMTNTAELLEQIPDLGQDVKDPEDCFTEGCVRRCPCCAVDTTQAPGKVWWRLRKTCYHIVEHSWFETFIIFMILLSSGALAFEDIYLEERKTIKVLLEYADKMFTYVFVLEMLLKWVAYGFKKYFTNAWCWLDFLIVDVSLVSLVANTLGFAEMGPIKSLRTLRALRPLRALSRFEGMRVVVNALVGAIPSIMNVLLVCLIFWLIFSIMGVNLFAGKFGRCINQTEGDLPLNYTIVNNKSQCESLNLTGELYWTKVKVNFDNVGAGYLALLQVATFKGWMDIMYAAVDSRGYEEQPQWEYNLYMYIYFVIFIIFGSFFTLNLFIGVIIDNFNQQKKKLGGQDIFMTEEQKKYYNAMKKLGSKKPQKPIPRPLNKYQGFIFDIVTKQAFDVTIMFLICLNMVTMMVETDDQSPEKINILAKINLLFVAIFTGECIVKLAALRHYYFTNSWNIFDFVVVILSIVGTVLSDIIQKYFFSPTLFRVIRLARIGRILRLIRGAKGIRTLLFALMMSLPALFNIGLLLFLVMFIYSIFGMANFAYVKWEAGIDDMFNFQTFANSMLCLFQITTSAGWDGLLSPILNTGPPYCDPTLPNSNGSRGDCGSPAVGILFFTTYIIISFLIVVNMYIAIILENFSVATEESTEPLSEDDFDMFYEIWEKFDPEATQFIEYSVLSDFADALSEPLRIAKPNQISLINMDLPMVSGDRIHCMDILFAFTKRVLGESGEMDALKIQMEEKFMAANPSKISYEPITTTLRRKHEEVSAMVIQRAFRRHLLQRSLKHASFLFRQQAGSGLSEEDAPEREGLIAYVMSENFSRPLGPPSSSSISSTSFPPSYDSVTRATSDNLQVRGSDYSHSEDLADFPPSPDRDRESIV
endogenous NaV-channel current in MDA-MB-231 cells, sequence (Q14524 711-950): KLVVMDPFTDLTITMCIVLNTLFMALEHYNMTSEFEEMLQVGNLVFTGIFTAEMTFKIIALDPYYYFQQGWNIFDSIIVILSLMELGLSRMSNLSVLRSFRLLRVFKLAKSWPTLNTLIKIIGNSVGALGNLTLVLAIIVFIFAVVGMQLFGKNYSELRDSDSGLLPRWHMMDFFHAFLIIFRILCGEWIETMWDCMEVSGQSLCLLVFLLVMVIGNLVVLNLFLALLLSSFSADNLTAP

## C=Cc1c(C)c2cc3nc(c4c5[n-]c(cc6nc(cc1[n-]2)C(C)=C6CC)c(C)c5C(=O)[C@@H]4C(=O)OC)[C@@H](CCC(=O)OC/C=C(\C)CCC[C@H](C)CCC[C@H](C)CCCC(C)C)[C@@H]3C.[Mg+2] [Chlorophyll-A, reference compound]
Human NaV1.5 (hNaV1.5) [1]
  effect on hNaV1.5 current: no detectable effect

## C=CC1=C(C)c2cc3[n-]c(cc4[n-]c(cc5nc(cc1n2)C(C)=C5C=C)c(C)c4CCC(=O)O)c(CCC(=O)O)c3C.[Cu+2] [CuPpIX, copper-PpIX]
Human NaV1.5 (hNaV1.5) [1]
  effect on hNaV1.5 current: failed to affect the current
Human NaV1.5 (hNaV1.5) [1]; listed as Cu(II)PpIX
  effect on hNaV1.5 current: completely ineffective

## C=CC1=C(C)C2=Cc3c(C=C)c(C)c4[n]3[Ga][n]3c(c(C)c(CCC(=O)O)c3=CC3=NC(=C4)C(C)=C3CCC(=O)O)=CC1=N2 [GaPpIX, gallium-PpIX]
MDA-MB-231 cells
  gap closure (cell migration) in wound-healing assay: diminished gap closure, albeit less potently than MgPpIX
[2]
  effect on BKCa current: did not block BKCa channels
Human NaV1.5 (hNaV1.5) [1]
  remaining peak inward current: about 10%
  IC50: 0.117 ± 0.008 µM

## C=CC1=C(C)c2cc3[n-]c(cc4[n-]c(cc5nc(cc1n2)C(C)=C5C=C)c(C)c4CCC(=O)[O-])c(CCC(=O)[O-])c3C.[H+].[H+].[Mn+2] [MnPpIX, manganese-PpIX]
Human NaV1.5 (hNaV1.5) [1]
  effect on hNaV1.5 current: slightly less potent than hemin
  IC50: 0.672 ± 0.018 µM

## C=CC1=C(C)c2cc3[n-]c(cc4[n-]c(cc5nc(cc1n2)C(C)=C5C=C)c(C)c4CCC(=O)[O-])c(CCC(=O)[O-])c3C.[H+].[H+].[Ni+2] [NiPpIX, nickel-PpIX]
MDA-MB-231 cells
  gap closure (cell migration) in wound-healing assay: failed to influence gap closure
[2]
  effect on BKCa current: did not block BKCa channels
Human NaV1.5 (hNaV1.5) [1]
  effect on hNaV1.5 current: failed to affect the current
Human NaV1.5 (hNaV1.5) [1]; listed as Ni(II)PpIX
  effect on hNaV1.5 current: completely ineffective

## C=CC1=C(C)c2cc3[nH]c(cc4nc(cc5[nH]c(cc1n2)c(C)c5CCC(=O)O)C(CCC(=O)O)=C4C)c(C)c3C=C [PpIX, Protoporphyrin IX, reference compound]
MDA-MB-231 cells
  gap closure (cell migration) in wound-healing assay: failed to influence gap closure
SW-48 cells
  cell migration in wound-healing assay: neither SnPpIX nor PpIX had any impact
SW-480 cells
  cell migration in wound-healing assay: neither SnPpIX nor PpIX had any impact

## NC1=N[C@H](O)[C@H]2[C@H]3O[C@]4(O)O[C@@H]([C@@H](O)[C@@]2(N1)[C@@H]4O)[C@]3(O)CO [TTX, tetrodotoxin, reference compound]
MDA-MB-231 cells
  gap closure in wound-healing assay: only a weak effect
[3]
  remaining endogenous NaV-channel current: 3.5 ± 0.5%

## C=CC1=C(C)c2cc3[n-]c(cc4nc(cc5[n-]c(cc1n2)c(C)c5C=C)C(C)=C4CCC(=O)O)c(CCC(=O)O)c3C.[Zn+2] [ZnPpIX, zinc-PpIX]
MDA-MB-231 cells
  gap closure (cell migration) in wound-healing assay: diminished gap closure, albeit less potently than MgPpIX
[2]
  effect on BKCa current: minor effect
Human NaV1.5 (hNaV1.5) [1]
  remaining peak inward current: about 10%
  IC50: 0.106 ± 0.011 µM

## C=CC1=C(C)c2cc3[n-]c(cc4[n-]c(cc5nc(cc1n2)C(C)=C5C=C)c(C)c4CCC(=O)O)c(CCC(=O)O)c3C.[Fe+2] [heme, reference compound]
Human NaV1.5 (hNaV1.5) [4]
  impact on hNaV1.5 channels: no impact

## COc1ccccc1OCC(O)CN1CCN(CC(=O)Nc2c(C)cccc2C)CC1 (stereo not drawn) [ranolazine]
[5]
  lung colonization by the cancer cells: reduced lung colonization by the cancer cells
  tolerability: well-tolerated

## Fe^3+-protoporphyrin IX [hemin]
MDA-MB-231 cells
  gap closure (cell migration) in wound-healing assay: diminished gap closure, albeit less potently than MgPpIX
Human NaV1.5 (hNaV1.5) [4]; read-out: apparent half-inhibitory constant (IC50) for hNaV1.5-mediated Na+ current, extracellularly applied
  IC50: ~0.1 µM
[6]
  effect on BKCa channel: effectively inhibited
Human NaV1.5 (hNaV1.5) [1]
  remaining peak inward current: ~ 20%
  IC50: 0.231 ± 0.018 µM
Human NaV1.5 (hNaV1.5) [1]; hNaV1.5, after prepulse-induced reversal
  reestablishment of inhibition, times slower than MgPpIX: about 8 times

## tin-PpIX [SnPpIX]
MDA-MB-231 cells
  gap closure (cell migration) in wound-healing assay: failed to influence gap closure
SW-48 cells
  cell migration in wound-healing assay: neither SnPpIX nor PpIX had any impact
Human NaV1.5 (hNaV1.5) [1]
  effect on hNaV1.5 current: failed to affect the current
Human NaV1.5 (hNaV1.5) [1]; listed as Sn(IV)PpIX
  effect on hNaV1.5 current: completely ineffective
SW-480 cells
  cell migration in wound-healing assay: neither SnPpIX nor PpIX had any impact
